13 molecules from PubChem BioAssay AID1845203 (Molecular Pharmacology Branch, DTP, NCI, 2023) can be followed below.

In the experiment the test system is G-401 tumor spheroids, viability % test/control. Description: Anticancer human tumor G-401 cell line growth inhibition.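 As to all read-outs here: spheroids exposed to compound for 7 days.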 Particulars: spheroids with HUVEC and MSC; for viability, T/C: stronger effect = lower value. An excerpt: Multicellular complex tumor spheroid response to DNA repair inhibitors in combination with DNA-damaging drugs
This study explores the anticancer activities of DNA-damaging drugs and inhibitors of DNA damage repair, both as single agents and in combinations. Complex tumor spheroids comprised of malignant cells, endothelial cells and mesenchymal stem cells served as an in vitro model for human solid tumors. This model system incorporates physiologically relevant features and patient-derived or established malignant cell lines with clinically relevant genetic alterations from many tumor types. Twenty-six patient-derived or established malignant cell lines were evaluated representing sarcoma, melanoma, small cell lung cancer (SCLC), non-small cell lung cancer (NSCLC), as well as bladder, ovarian and pancreatic cancers. The concentration ranges selected for each drug and investigational agent were based upon clinically achievable concentrations if the clinical Cmax of the agent was known.
Compounds. The drugs and compounds olaparib (NSC753686), talazoparib (NSC767125), berzosertib (NSC777718), elimusertib (NSC800525), nedisertib (NSC802822), VX-984 (NSC792969), AZD-1390 (NSC803789), temozolomide (NSC362856), topotecan (NSC609699), trabectedin (NSC813783), staurosporine (NSC755774), and gemcitabine (NSC613327) were obtained from the National Cancer Institute (NCI) Developmental Therapeutics Program Chemical Repository. The FDA-approved anticancer drug set is available from the Developmental Therapeutics Program at https://dtp.cancer.gov/organization/dscb/obtaining/available_plates.htm. […] The stock solutions were prepared in dimethyl sulfoxide (DMSO, Sigma-Aldrich, St. Louis, MO, cat. D2650) at 400-fold the tested concentration and stored at -70 degrees C. Prior to their use, the stock solutions were diluted in fresh medium and the final DMSO concentration in the assay was 0.25% (v/v). All drugs and investigational agents were tested over a range starting from a high concentration at or near the clinical Cmax and decreasing in half-log increments. If the clinical Cmax for an agent had not been determined, the highest concentration tested was 10 microM.
Cell Lines. The patient-derived cancer cell (PDC) lines: 156681-154-R-J1-PDC, 283228-195-R-J1-PDC, 287954-098-R-J1-PDC, 292921-168-R-J2-PDC, 349418-098-R-PDC, 425362-245-T-J1-PDC, 556581-035-R-J1-PDC, and BL0293-F563-PDC were received from the NCI Patient-Derived Models Repository (PDMR, https://pdmr.cancer.gov). The established cell lines HS-SY-2 (RRID:CVCL_8719), MPNST, and SYO-1 (RRID:CVCL_7146) were obtained from the Sloan Kettering Institute. The alveolar soft parts sarcoma cell line ASPS-1 (RRID:CVCL_S738) was established at the NCI and grown from internal seed stocks. The following established cell lines were purchased from the American Type Culture Collection (ATCC, Manassas, VA): G-401 (ATCC, cat. CRL-1441, RRID:CVCL_0270), SW982 (ATCC, cat. HTB-93, RRID:CVCL_1734), VA-ES-BJ (ATCC, cat. CRL-2138, RRID:CVCL_1785), NCI-H719 (ATCC, cat. CRL-5837, RRID:CVCL_1582), NCI-H196 (ATCC, cat. CRL-5823, RRID:CVCL_1509), NCI-H841 (ATCC, cat. CRL-5845, RRID:CVCL_1595), NCI-H1618 (ATCC, cat. CRL-5879, RRID:CVCL_1480), NCI-H1876 (ATCC, cat. CRL-5902, RRID:CVCL_1503), DMS 114 (ATCC, cat. CRL-2066; RRID:CVCL_1174), NCI-H211 (ATCC, cat. CRL-5824; RRID:CVCL_1529), and SW 1271 (ATCC, cat. CRL-2177, RRID:CVCL_1716). The small cell lung cancer cell line COR-L88 was purchased from Sigma-Aldrich (cat. 92031917-1VL, RRID:CVCL_1141). The non-small cell lung cancer cell lines NCI-H226 (RRID:CVCL_1544) and NCI-H322M (RRID:CVCL_1557) were established at the NCI and grown from internal seed stocks. Pooled donor human umbilical vein endothelial cells (HUVEC, Lonza, cat. CC-2519) and human mesenchymal stem cells (hMSC, Lonza, cat. PT-2501) were purchased from Lonza (Walkersville, MD).
Cell Culture. All cells were maintained in an incubator at 37 degrees C and 5% CO2 with 95% humidity. […]

[1] abbreviates: compound alone, run of 12/02/2019.
Where [2] appears, read: compound alone, run of 12/12/2019.

Values joined by “and” are separate entries in the source; they are usually repeats but may differ in a detail not shown here. Identical values can stand only once.

In general, viability, T/C refers to the result in the treated group divided by that in the control group, in per cent. The term IC50 denotes the concentration that inhibits the measured activity by half. Take `CC(C)n1c(=O)n(C)c2cnc3cc(F)c(-c4ccc(OCCCN5CCCCC5)nc4)cc3c21`: the viability, T/C (compound 0.0316 µM) is 87.5% and 105% and 107%; the viability, T/C (compound 0.1 µM) is 92.2% and 105% and 104%; the viability, T/C (compound 0.316 µM) is 47.9% and 100% and 108%; the viability, T/C (compound 1 µM) was 90.7% and 101% and 103%; the viability, T/C (compound 3.16 µM) is 95.9% and 98.2% and 101%; the viability, T/C (compound 10 µM) was 67.4% (2×) and 86.7%. Moreover, the IC50 (curve of compound) is above 10 µM.

As for `CC1COCCN1c1cc(-c2ccnn2C)c2ccnc(-c3ccn[nH]3)c2n1` (stereo not drawn), the viability, T/C reads like this: (compound 0.0316 µM) 67% and 79% and 90.9%; (compound 0.1 µM) 34.7% and 42.4% and 56%; (compound 0.316 µM) 19.1% and 24.4% and 31.2%; (compound 1 µM) 13.1% and 17.3% and 18.1%; (compound 3.16 µM) 16.2% and 18.7% and 19.8%; (compound 10 µM) 18.1% and 20.2% and 22.3%. Moreover, the IC50 (curve of compound) was 0.058 µM and 0.079 µM and 0.132 µM.

As to `CC[C@@]1(O)C(=O)OCc2c1cc1n(c2=O)Cc2cc3c(CN(C)C)c(O)ccc3nc2-1`, the viability, T/C is, setting by setting: (compound 0.003 µM) 78.6% [middle of 10 runs]; (compound 0.00949 µM) 48.8% [middle of 10 runs]; (compound 0.03 µM) 16% [middle of 10 runs]; (compound 0.0949 µM) 7.7% [middle of 10 runs]; (compound 0.3 µM) 5.06% [middle of 10 runs]. The IC50 runs as follows: under setting [1], 8.64 nM [middle of 5 runs]; under setting [2], 9.18 nM [middle of 5 runs].

For `CNCc1ccc(-c2cc(-c3nc(-c4ccc(S(=O)(=O)C(C)C)cc4)cnc3N)on2)cc1`, the viability, T/C by setting is: (compound 0.00949 µM) 97.3% and 93.8% and 100%; (compound 0.03 µM) 102% and 98.4% and 99.4%; (compound 0.0949 µM) 103% and 105% and 101%; (compound 0.3 µM) 96.6% and 96% and 97.9%; (compound 0.949 µM) 71.3% and 64% and 69.4%; (compound 3 µM) 41.7% and 38.1% and 39.8%. Moreover, the IC50 (curve of compound) was 2.17 µM and 1.77 µM and 2.02 µM.

`COc1cc(C)[nH]c(=O)c1CN1CCc2c(Cl)cc(C(OC)C3COC3)c(Cl)c2C1=O` (stereo not drawn): the viability, T/C was 76.2% and 80.4% and 95.5% (compound 0.0316 µM); 52.4% and 56.5% and 66.3% (compound 0.1 µM); 35.7% and 33.3% and 42.5% (compound 0.316 µM); 30.3% and 28.9% and 35.6% (compound 1 µM); 28% and 18.8% and 33.9% (compound 3.16 µM); 26.9% and 19% and 31.9% (compound 10 µM). For the same molecule, under “curve of compound”, the IC50 is 0.118 µM and 0.138 µM and 0.223 µM.

In the case of `COc1cc2c(cc1O)CCNC21CSC2c3c(OC(C)=O)c(C)c4c(c3C(COC1=O)N1C(O)C3Cc5cc(C)c(OC)c(O)c5C(C21)N3C)OCO4` (stereo not drawn), the viability, T/C (compound 30 pM) was 99.4% [middle of 10 runs]; the viability, T/C (compound 0.0003 µM) was 38.9% [middle of 10 runs]; the viability, T/C (compound 0.000949 µM) is 7.91% [middle of 10 runs]; the viability, T/C (compound 0.003 µM) is 0.12% [middle of 5 runs]. The IC50 under setting [2] is 0.233 nM [middle of 10 runs].

As to `COc1ccc([C@@H](O)c2cc(-c3ncnc4cc(N5CCOCC5)ccc34)c(F)cc2Cl)nn1`, the viability, T/C reads like this: (compound 0.0316 µM) 101% and 107% and 106%; (compound 0.1 µM) 91.2% and 94.8% and 97.8%; (compound 0.316 µM) 82.3% and 92.2% and 94.8%; (compound 1 µM) 50.2% and 63.6% and 69.6%; (compound 3.16 µM) 22.2% and 24% and 31%; (compound 10 µM) 11% and 10.1% and 15.4%. The IC50 (curve of compound) is 1.02 µM and 1.48 µM and 1.8 µM.

For the molecule `Cc1cc(C)c(CNC(=O)c2cc(-c3ccc(CN4CCOCC4)cc3)cc3c2cnn3C2CCCC2)c(=O)[nH]1`, the viability, T/C is 106% and 105% and 95.6% (compound 0.0316 µM); 111% and 102% and 98.5% (compound 0.1 µM); 108% and 107% and 106% (compound 0.316 µM); 113% and 97.5% and 91.4% (compound 1 µM); 98.1% and 91.5% and 77.8% (compound 3.16 µM); 44.2% and 44.8% and 57.8% (compound 10 µM). Also, under “curve of compound”, the IC50 was 8.84 µM and 8.81 µM and > 10 µM.

On to `Cc1sc2c(c1C)C(c1ccc(Cl)cc1)=NC(CC(=O)Nc1ccc(O)cc1)c1nnc(C)n1-2` (stereo not drawn), for which the viability, T/C (compound 0.00949 µM) is 93.3% and 106% and 91.1%; the viability, T/C (compound 0.03 µM) is 86.6% and 75.1% and 80.9%; the viability, T/C (compound 0.0949 µM) was 65.4% and 56.4% and 67.6%; the viability, T/C (compound 0.3 µM) is 34.7% and 35.5% and 37.8%; the viability, T/C (compound 0.949 µM) was 20.1% and 20% and 21.8%; the viability, T/C (compound 3 µM) was 10% and 11.8% and 7.68%. For the same molecule, for the setting “curve of compound”, the IC50 was 0.173 µM and 0.122 µM and 0.192 µM.

Turning to `Cn1ncnc1[C@H]1c2n[nH]c(=O)c3cc(F)cc(c23)N[C@@H]1c1ccc(F)cc1`, the viability, T/C reads like this: (compound 0.00949 µM) 70.3% and 90% and 80.4%; (compound 0.03 µM) 54.4% and 75.6% and 67%; (compound 0.0949 µM) 43.7% and 56% and 56.1%; (compound 0.3 µM) 28.6% and 38.6% and 34.7%; (compound 0.949 µM) 17.3% and 23.2% and 21.1%; (compound 3 µM) 12.2% and 14.5% and 11.7%. For the same molecule, for the setting “curve of compound”, the IC50 was 0.049 µM and 0.143 µM and 0.12 µM.

In the case of `Cn1nnc2c(C(N)=O)ncn2c1=O`, the viability, T/C was 102% [middle of 10 runs] (compound 1 µM); 102% [middle of 10 runs] (compound 3.16 µM); 103% [middle of 10 runs] (compound 10 µM); 96.8% [middle of 10 runs] (compound 31.6 µM); 94.8% [middle of 9 runs] (compound 100 µM). Further, the half-inhibitory concentration (IC50) under setting [1] was above 100 µM.

With `O=C(c1cc(Cc2n[nH]c(=O)c3ccccc23)ccc1F)N1CCN(C(=O)C2CC2)CC1`, the viability, T/C runs as follows: (compound 0.0949 µM) 98.3% and 98.6% and 96.5%; (compound 0.3 µM) 97.5% and 84.9% and 91.2%; (compound 0.949 µM) 96.1% and 86.9% and 105%; (compound 3 µM) 83.7% and 82.5% and 87%; (compound 9.49 µM) 54.9% and 49.4% and 58.5%; (compound 30 µM) 40.1% and 28.5% and 34.9%. Further, under “curve of compound”, the IC50 was 13.9 µM and 9.39 µM and 14.2 µM.

For `[2H]c1nc(C)nc([2H])c1-c1cc(NC[C@@H](C)c2cccc3c(C(=O)NC)ccnc23)ncn1`, the viability, T/C is, setting by setting: (compound 0.0316 µM) 104% and 105% and 96.6%; (compound 0.1 µM) 108% and 98.9% and 97.7%; (compound 0.316 µM) 103% and 105% and 98.1%; (compound 1 µM) 102% and 98.9% and 98.6%; (compound 3.16 µM) 105% and 103% and 98.3%; (compound 10 µM) 104% and 103% and 98%. Moreover, the IC50 (curve of compound) was above 10 µM.
